Values quoted from earlier work as cited in paper PMC9915632 (International Journal of Molecular Sciences, 2023).
Non-standard residues stand in square brackets, D forms with d. Orn = NCCC[C@H](N)C(=O)O

Experiments:
[1] = ref [22], cited from earlier work
SARS-CoV-2 = settings: in vitro; ref [16]; cited from earlier work
[2] = ref [15]; cited from earlier work

Substance	hemolysis ([1]; limits use to topical application)	tolerability ([1]; topical antibiotic)	anti-SARS-CoV-2 activity (SARS-CoV-2)	antibacterial and fungicidal activity [2]
For-Val-Gly-D-Leu-Ala-D-Val-Val-D-Val-Trp-D-Leu-Trp-D-Leu-Trp-D-Leu-Trp-Gly-ol [Gramicidin D, FDA-approved antimicrobial peptide drug, PubChem CID 45267103]	hemolytic side effect	well-tolerated antibiotic		
cyclo(L[dF]PV[Orn]L[dF]PV[Orn]) [Gramicidin S]			anti-SARS-CoV-2 activity in vitro	potent antibacterial and fungicidal activity
